In PubChem BioAssay AID248 (DTP/NCI, 2004):
Where “and” joins values, the source holds several entries; their conditions need not be identical. Equal entries are not always repeated. Inconclusive results and toxic doses are left out.

System: L1210 leukemia ip in BDF1 mice, survival T/C
Assay: NCI In Vivo Anticancer Drug Screen. Data for tumor model L1210 Leukemia (intraperitoneal) in B6D2F1 (BDF1) mice
Settings: endpoint: mean survival time, higher = longer survival
Summary of the method: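 Read-out is survival time, reported as the treated-group measurement over the vehicle-control measurement.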

[1] = dose: 100.0 mg/kg/injection, schedule: Q04DX003 (ip), vehicle: saline with Tween-80
[2] = dose: 200.0 mg/kg/injection, schedule: Q04DX003 (ip), vehicle: saline with Tween-80
[3] = dose: 400.0 mg/kg/injection, schedule: Q04DX003 (ip), vehicle: saline with Tween-80
[4] = dose: 25.0 mg/kg/injection, schedule: Q01DX009 (ip), vehicle: saline with Tween-80
[5] = dose: 25.0 mg/kg/injection, schedule: Q04DX002 (ip), vehicle: saline with Tween-80
[6] = dose: 50.0 mg/kg/injection, schedule: Q01DX009 (ip), vehicle: saline with Tween-80
[7] = dose: 50.0 mg/kg/injection, schedule: Q04DX002 (ip), vehicle: saline with Tween-80
[8] = dose: 100.0 mg/kg/injection, schedule: Q04DX002 (ip), vehicle: saline with Tween-80
[9] = dose: 50.0 mg/kg/injection, schedule: Q04DX003 (ip), vehicle: saline
[10] = dose: 100.0 mg/kg/injection, schedule: Q01DX001 (ip), vehicle: Klucel (hydroxypropylcellulose) (HPC)
[11] = dose: 200.0 mg/kg/injection, schedule: Q01DX001 (ip), vehicle: Klucel (hydroxypropylcellulose) (HPC)
[12] = dose: 12.5 mg/kg/injection, schedule: Q01DX009 (ip), vehicle: saline with Tween-80

With `COc1cc(N(CCCl)CCCl)c(OC)cc1/C=N\NC(=O)CN(C)C` the T/C (dose: 2.25 mg/kg/injection, schedule: Q01DX015 (ip), vehicle: saline) was 105 % of control, the T/C (dose: 4.5 mg/kg/injection, schedule: Q01DX015 (ip), vehicle: saline) was 108 % of control and the T/C (dose: 6.25 mg/kg/injection, schedule: Q01DX015 (ip), vehicle: saline) was 119 % of control. The T/C (dose: 9.0 mg/kg/injection, schedule: Q01DX015 (ip), vehicle: saline) was 116 % of control, the T/C (dose: 10.5 mg/kg/injection, schedule: Q01DX015 (ip), vehicle: saline) was 114 % of control and the T/C (dose: 12.5 mg/kg/injection, schedule: Q01DX015 (ip), vehicle: saline) was 115 % of control. The T/C (dose: 18.0 mg/kg/injection, schedule: Q01DX015 (ip), vehicle: saline) was 111 % of control and 116 % of control, the T/C (dose: 25.0 mg/kg/injection, schedule: Q01DX015 (ip), vehicle: saline) was 96 % of control and the T/C (dose: 30.0 mg/kg/injection, schedule: Q01DX015 (ip), vehicle: saline) was 88 % of control. The T/C (dose: 36.0 mg/kg/injection, schedule: Q01DX015 (ip), vehicle: saline) was 94 % of control, the T/C (dose: 44.7 mg/kg/injection, schedule: Q01DX001 (ip), vehicle: saline) was 120 % of control and the T/C (dose: 50.0 mg/kg/injection, schedule: Q01DX015 (ip), vehicle: saline) was 90 % of control. The T/C (dose: 100.0 mg/kg/injection, schedule: Q01DX001 (ip), vehicle: saline) was 162 % of control and the T/C (dose: 150.0 mg/kg/injection, schedule: Q01DX001 (ip), vehicle: saline) was 124 % of control.
With `CCOc1ccc(C(=O)O)cc1OCC` the T/C [1] was 110 % of control, the T/C [2] was 98 % of control and the T/C [3] was 96 % of control.
In the case of `CC(=O)OC(C1SCCCS1)C1CC2C=CC1C2` (centres undefined), the T/C (dose: 100.0 mg/kg/injection, schedule: Q04DX002 (ip), vehicle: Klucel (hydroxypropylcellulose) (HPC)) is reported as 115 % of control, the T/C (dose: 200.0 mg/kg/injection, schedule: Q04DX002 (ip), vehicle: Klucel (hydroxypropylcellulose) (HPC)) is reported as 91 % of control and the T/C (dose: 400.0 mg/kg/injection, schedule: Q04DX002 (ip), vehicle: Klucel (hydroxypropylcellulose) (HPC)) is reported as 105 % of control.
With `NNCCO` the T/C [4] was 97 % of control, the T/C [5] was 94 % of control and the T/C [6] was 106 % of control. The T/C [7] was 105 % of control and the T/C [8] was 106 % of control.
For `CCN(CC)CC(=O)NCC(CCCCN1CCCCC1)(c1cccc2ccccc12)C(C)C` (centres undefined), the T/C (dose: 12.5 mg/kg/injection, schedule: Q04DX003 (ip), vehicle: saline) was 104 % of control, the T/C (dose: 25.0 mg/kg/injection, schedule: Q04DX003 (ip), vehicle: saline) was 102 % of control and the T/C [9] was 102 % of control.
`CC(=O)c1ccc2ccc3cccc4ccc1c2c34` was tested, and the T/C (dose: 100.0 mg/kg/injection, schedule: Q04DX002 (ip), vehicle: gum acacia) was 96 % of control, the T/C (dose: 200.0 mg/kg/injection, schedule: Q04DX002 (ip), vehicle: gum acacia) was 96 % of control and the T/C (dose: 400.0 mg/kg/injection, schedule: Q04DX002 (ip), vehicle: gum acacia) was 93 % of control.
With `CC1(C)C2CCC1(C)C(OCCC#N)C2` (centres undefined) the T/C (dose: 100.0 mg/kg/injection, schedule: Q04DX002 (ip), vehicle: saline) was 93 % of control, the T/C (dose: 200.0 mg/kg/injection, schedule: Q04DX002 (ip), vehicle: saline) was 107 % of control and the T/C (dose: 400.0 mg/kg/injection, schedule: Q04DX002 (ip), vehicle: saline) was 104 % of control.
`NC(=S)N/N=C(\c1ccc(Br)cc1)C1CC1` was tested, and the T/C (dose: 2.0 mg/kg/injection, schedule: Q01DX Z (ip), vehicle: carboxymethylcellulose (CMC)) was 105 % of control, the T/C (dose: 4.0 mg/kg/injection, schedule: Q01DX Z (ip), vehicle: carboxymethylcellulose (CMC)) was 102 % of control and the T/C (dose: 4.0 mg/kg/injection, schedule: Q01DX Z (oral), vehicle: carboxymethylcellulose (CMC)) was 115 % of control. For the same molecule, the T/C (dose: 8.0 mg/kg/injection, schedule: Q01DX Z (ip), vehicle: carboxymethylcellulose (CMC)) was 113 % of control, the T/C (dose: 8.0 mg/kg/injection, schedule: Q01DX Z (oral), vehicle: carboxymethylcellulose (CMC)) was 115 % of control and the T/C (dose: 16.0 mg/kg/injection, schedule: Q01DX Z (oral), vehicle: carboxymethylcellulose (CMC)) was 107 % of control.
With `CCN(C(=S)c1ccccc1)c1ccc(C(=O)OC)cc1` the T/C (dose: 75.0 mg/kg/injection, schedule: Q04DX003 (ip), vehicle: saline) was 100 % of control, the T/C [10] was 100 % of control and the T/C (dose: 150.0 mg/kg/injection, schedule: Q04DX003 (ip), vehicle: saline) was 102 % of control. For the same molecule, the T/C [11] was 104 % of control, the T/C (dose: 300.0 mg/kg/injection, schedule: Q04DX003 (ip), vehicle: saline) was 97 % of control and the T/C (dose: 400.0 mg/kg/injection, schedule: Q01DX001 (ip), vehicle: Klucel (hydroxypropylcellulose) (HPC)) was 100 % of control.
`CCCCCCCC/C=C\CCCCCCCCSC#N` was tested, and the T/C [5] was 97 % of control, the T/C [7] was 106 % of control and the T/C (dose: 100.0 mg/kg/injection, schedule: Q01DX009 (ip), vehicle: saline with Tween-80) was 97 % of control. The T/C [8] was 100 % of control, the T/C (dose: 200.0 mg/kg/injection, schedule: Q01DX009 (ip), vehicle: saline with Tween-80) was 97 % of control and the T/C (dose: 200.0 mg/kg/injection, schedule: Q04DX002 (ip), vehicle: saline with Tween-80) was 103 % of control. The T/C (dose: 400.0 mg/kg/injection, schedule: Q04DX002 (ip), vehicle: saline with Tween-80) was 87 % of control.
With `CCCCCn1cnc2c(=O)[nH]c(N)nc21` the T/C (dose: 50.0 mg/kg/injection, schedule: Q01DX001 (ip), vehicle: Klucel (hydroxypropylcellulose) (HPC)) was 105 % of control, the T/C [10] was 103 % of control and the T/C [11] was 106 % of control.
For `COc1ccc(-c2c(C(=O)O)cccc2[N+](=O)[O-])c(OC)c1`, the T/C (dose: 100.0 mg/kg/injection, schedule: Q01DX003 (ip), vehicle: Klucel (hydroxypropylcellulose) (HPC)) was 98 % of control, the T/C (dose: 200.0 mg/kg/injection, schedule: Q01DX003 (ip), vehicle: Klucel (hydroxypropylcellulose) (HPC)) was 91 % of control and the T/C (dose: 400.0 mg/kg/injection, schedule: Q01DX003 (ip), vehicle: Klucel (hydroxypropylcellulose) (HPC)) was 86 % of control.
For `C#CC(=O)C(CC)CCCC` (centres undefined), the T/C (dose: 6.25 mg/kg/injection, schedule: Q01DX009 (ip), vehicle: saline with Tween-80) was 115 % of control and the T/C [12] was 117 % of control.
In the case of `Cc1ccc(S(=O)(=O)OC2COC3C2OC2OC(C)(C)OC23)cc1` (centres undefined), the T/C [1] is reported as 112 % of control, the T/C [2] is reported as 101 % of control and the T/C [3] is reported as 106 % of control.
`C/C(C(=O)O)=C(/Br)c1ccc([N+](=O)[O-])cc1` was tested, and the T/C (dose: 100.0 mg/kg/injection, schedule: Q01DX009 (ip), vehicle: Klucel (hydroxypropylcellulose) (HPC)) was 94 % of control, the T/C (dose: 100.0 mg/kg/injection, schedule: Q04DX003 (ip), vehicle: Klucel (hydroxypropylcellulose) (HPC)) was 94 % of control and the T/C (dose: 200.0 mg/kg/injection, schedule: Q01DX009 (ip), vehicle: Klucel (hydroxypropylcellulose) (HPC)) was 95 % of control. For the same molecule, the T/C (dose: 200.0 mg/kg/injection, schedule: Q04DX003 (ip), vehicle: Klucel (hydroxypropylcellulose) (HPC)) was 100 % of control, the T/C (dose: 400.0 mg/kg/injection, schedule: Q01DX009 (ip), vehicle: Klucel (hydroxypropylcellulose) (HPC)) was 92 % of control and the T/C (dose: 400.0 mg/kg/injection, schedule: Q04DX003 (ip), vehicle: Klucel (hydroxypropylcellulose) (HPC)) was 100 % of control.
`[Co].[NH-]CC[N-]CCO.[NH-]CC[N-]CCO` was tested, and the T/C (dose: 25.0 mg/kg/injection, schedule: Q01DX009 (ip), vehicle: saline) was 100 % of control, the T/C (dose: 50.0 mg/kg/injection, schedule: Q01DX009 (ip), vehicle: saline) was 102 % of control and the T/C [9] was 108 % of control. For the same molecule, the T/C (dose: 100.0 mg/kg/injection, schedule: Q04DX003 (ip), vehicle: saline) was 105 % of control.
For `O=C(CN1CCOCC1)Nc1ccc(S(=O)(=O)c2ccc([N+](=O)[O-])cc2)cc1`, the T/C (dose: 75.0 mg/kg/injection, schedule: Q01DX001 (ip), vehicle: acetone) was 93 % of control and the T/C (dose: 150.0 mg/kg/injection, schedule: Q01DX001 (ip), vehicle: acetone) was 93 % of control.
In the case of `c1cc2c(c(NC3=NCCN3)c1)CCCC2`, the T/C [12] is reported as 98 % of control, the T/C [4] is reported as 93 % of control and the T/C [6] is reported as 95 % of control.
